What was measured:
[1] = test system: IFNα production from SLE sera stimulated pDCs; test: IFNα production after stimulation with SLE sera; format: cell-based, human; conditions: sera from an SLE patient at final dilution 1/5
Method: The ability of anti-BDCA2 mAb to inhibit IFNα production following stimulation with a physiologically relevant ligand, namely, sera from patients with SLE was also tested. SLE sera are believed to induce type I IFN through complexes of anti-DNA autoantibodies and immunostimulatory hypomethylated DNA that stimulate TLR9. PBMCs were stimulated with sera from an SLE patient (provided by Dr. Gregg Silverman, NYU) and used at a final dilution of 1/5.

[2] = test system: BDCA2 bearing CHO cells; test: ADCC assay with NK cells; format: cell-based; conditions: NK:CHO 5:1, 4 hours
Method: The CHO cell line (EAG2456 T1F2 Clone 34.16.7) was used as the target cell. Expression level of BDCA2 on the surface of CHO cells was determined by FACS using an APC-labeled anti-BDCA2 mAb (clone AC144, Miltenyi). NK cells were used as the effector cells and were separated from whole blood by negative selection using the RosetteSep™ Human NK Cell Enrichment Cocktail (Stem Cells Technologies). After a 20 minute incubation with the cocktail at room temperature, NK cells were isolated by discontinuous gradient centrifugation over ficoll. […] The negative control consisted of wells containing CHO and NK cells without antibodies. NK and CHO cells lysed with Tx-100 were used to determine maximal killing. ADCC was evaluated using the Vybrant Cytotoxicity Assay kit (Invitrogen), following the manufacturer's instructions. The assay detects G6PD from damaged cells based on the G6PD-dependent reduction of resazurin which emits fluorescence at 590 nm after excitation at 530 nm. The ADCC assay depicted in FIG. 22 panel A was performed using high BDCA2 expressing CHO cells (panel C) while the ADCC assay in FIG. 22 panel B used CHO cells with lower BDCA2 expression (panel D).

[3] = test system: CHO-BDCA2/FcεRIγ stable transfectant cells; test: CDC assay with rabbit serum complement; format: cell-based; conditions: 1 h at 37° C.
Method: CHO− BDCA2/FcεRIγ stable transfectant cells (EAG2456 T1F2 Clone 34.16.7) were seeded at 5×10^4 cells in 96 well Collagen black well plates and incubated at 37° C. for 48 hrs. […] Negative control consisted of wells containing CHO cells, rabbit serum complement, and PI, without antibodies. NK and CHO cells lysed with T-100×were used to determine maximal killing. The plates were read using Cytoflour Fluorescence plate reader (ex530/em645).

[4] = test system: type I IFN transcription in purified pDCs; test: Q-PCR of type I IFN genes in CpG-A stimulated purified pDCs; format: cell-based, human; conditions: 5 μM CPG-A, 18 hours
Method: pDCs were purified using a two-step magnetic bead separation procedure (MACS kit, Miltenyi Biotec). […] Total assay volume was 200 μl/well. Plates were incubated for 18 hours at 37° C., and RNA was extracted from cells using Trizol reagent (Invitrogen corporation) and further purified using an RNeasy mini column (Qiagen Sciences). All primers and probes were purchased from Applied Biosystems Inc. Relative transcript quantities were determined for each sample by comparison to the oligonucleotide standard curve using Sequence Detection Software (Applied Biosystems Inc.) and normalized to a control (GAPDH).

[5] = test system: CD62L on the surface of human pDCs; test: CD62L surface expression on pDCs by flow cytometry; format: cell-based; conditions: whole blood, 1 hour at 37° C., no stimulation
Method: The MFI of CD62L was determined by gating on pDCs as defined by CD14−, CD20−, HLA-DR+ and CD123+.
Metalloproteinase are known to induce CD62L shedding from the surface of immune cells. […] The surface expression of CD62L was assayed by flow cytometry. GM6001 inhibited the BIIB059-mediated down-modulation CD62L in a dose dependent manner (FIG. 45).

[6] = test system: TLR9-induced IFNα production in whole blood; test: Whole blood assay, TLR9-induced IFNα production; format: cell-based, human; conditions: CpG-A stimulated whole blood
Method: Whole blood was drawn from heparinized venous blood of healthy donors. […] CpG-A was added at 200 μg/mL, which was determined to be optimal for stimulation of IFNα production in whole blood. Plates were incubated for 18 hours at 37° C. and supernatants collected for use in IFNα ELISA assays (PBL InterferonSource). The assays were performed according to the manufacturer's protocol. Shown in FIG. 15A is a representative experiment of 6 independent experiments performed.
Specifically, whole blood from 2 SLE patients or 2 healthy donors was provided by Bioreclamation LLC by overnight shipping. […] Plates were incubated for 18 hours at 37° C. and supernatants collected for use in IFNα ELISA assays (PBL InterferonSource). The assays were performed according to the manufacturer's protocol.
CpG-A was added at 75 μg/mL (open square), which was determined to be optimal for stimulation of IFNα production in whole blood. Plates were incubated for 18 hours at 37° C. and supernatants collected for use in IFNα ELISA assays (PBL InterferonSource).
The whole blood was then collected, lysed, and BDCA2 expression was assessed by flow cytometry using the FITC-conjugated non-cross blocking antibody 2D6. […] The supernatants were harvested and evaluated for IFNα by ELISA.

[7] = test system: TLR3-induced IFNα production by PBMC; test: TLR3-induced IFNα production by PBMC; format: cell-based, human; conditions: 1 μM Poly I:C, BIIB059 10 μg/mL to 0.5 ng/ml
Method: This experiment was performed to determine whether other cell types triggered with different TLR ligands are still able to produce type I IFN even in the presence of BIIB059. […] PBMC from human healthy donors were stimulated with poly: IC, which is a TLR3 ligand that can potently induce type I IFN predominantly by monocytes. […] The plates were incubated overnight (18 hours) at 37° C. and 5% CO2. 200 μL of the supernatants were collected for evaluation of IFNα levels by ELISA.

[8] = test system: human and cynomolgus BDCA2 ECD; test: Octet binding of BIIB059 to BDCA2 ECD; design: species or system cynomolgus monkey; conditions: BIIB059 on anti-human Fc tips, ECD 2 μg/mL, 5 mM CaCl2
Method: For the association step, human and cynomolgus BDCA2 ECD was added at a concentration of 2 μg/mL. The buffer for this experiment was 50 mM HEPES, pH 7, 100 mM NaCl, 5 mM CaCl2, 1 mg/mL BSA, 0.02% Tween 20 and 0.001% azide.

[9] = test system: Sm/RNP immune complexes-induced cytokines by pDCs; test: Cytokines from Sm/RNP immune complex stimulated purified pDCs; format: cell-based, human; conditions: 10 μg/mL BIIB059, 18 hours
Method: Specifically, Sm/RNP immune complexes (IC) were pre-formed by mixing sm-RNP from calf thymus and anti-RNP antibodies purified form sera of SLE patients for 1 h in serum-free medium. pDCs from human healthy donors were isolated using a two-step magnetic bead separation procedure (MACS kit, Miltenyi Biotec). […] The plates containing pDCs were incubated for 18 hours at 37° C. and supernatants collected for use in ELISA or multiplex assays to measure concentrations of inflammatory cytokines and chemokines.

Substance | IFNα production [1] | killing of BDCA2 bearing CHO cells [2] | CDC activity, in words [3] | transcription of type I IFNs [4] | CD62L expression on the surface of pDCs [5] | other cytokines and chemokines in whole blood [6] | TLR3-induced IFNα production [7] | ADCC activity, in words [2] | binding to human versus cyno BDCA2 ECD [8] | Sm/RNP immune complexes-induced IFNα, TNFα and IL-6 [9] | chemokines induced by Sm/RNP immune complexes (CCL3, CCL4) [9]
24F4S: hu24F4 H4/L1 with C95S light chain; differs from BIIB059 by 1 amino acid residue | completely abrogated | 100% | cell killing by CDC similar to Triton lysis |  |  |  |  |  |  |  | 
BIIB059: humanized IgG1 anti-BDCA2 antibody, mature heavy chain SEQ ID NO: 4 and mature light chain SEQ ID NO: 3 |  |  | cell killing by CDC similar to Triton lysis | inhibited transcription of all type I IFNs tested | dose-dependent decrease | inhibition of a large array of cytokines and chemokines | did not impact | identical ADCC activity | comparable | potently inhibited | also inhibited

Reference: patent publication US20250304700A1, “ANTI-BLOOD DENDRITIC CELL ANTIGEN 2 ANTIBODIES AND USES THEREOF” (Biogen MA Inc., priority 2012, published 2025)
